Source: patent EP0345251B1 (priority 1986, dated 1988)

Legend:
[1] = Acute vincristine toxicity in mice, with and without Cronassial; assay type: in vivo, Male Swiss Schneider mice
Procedure: (§1) Toxicity acute and chronic. Male Swiss Schneider mice with a body weight of 25-30g were used for these experiments. Mice were usually kept in groups of not more than 8 in standard cages. Food and water were supplied ad libidum. The animals were kept in experimental rooms under closely controlled conditions. They were weighed daily. For acute vincristine toxicity in chicks, 48 hour old SPF chicks were used.
(§2) Vincristine. A standard vial of 'Oncovin' (Eli Lilly Co.) containing 1 mg of vincristine was used. It was made up with the appropriate volume of diluting fluid to give the final concentration required to inject 0.1 ml/10 g body weight.
(§3) Cronassial®. A solution of this substance, which is a mixture of four gangliosides, was prepared by the addition of a volume of sterile distilled water sufficient to give a concentration of 200 mg/kg in a volume of 0.2 ml. This dose was given to mice of approximately 20g.

[2] = Chronic vincristine toxicity in mice, with and without Cronassial; assay type: in vivo, Male Swiss Schneider mice; conditions: for SURVIVORS No.at 30 d / survival at 720 h: chronic, host SN; for survival at 720 h: ip, 200 mg/kg, read-out: SURVIVAL % at 30 d
Procedure: as §1, §2, §3
Giving daily injections of vincristine of 0.8 mg/kg for 5 days was close to the LD₅₀. By giving 200 mg/kg Cronassial® at the same time as the vincristine, the number of survivors at 30 days was increased to 100% Almost identical results were obtained by using 1 mg/kg vincristine, even though the drugs were administered for only 4 days. However the total dosage of vincristine administered in the two experiments (4 mg/kg) was identical. Increasing the cumulative dose of vincristine from 4 to 5 mg/kg increased the mortality of the mice to 100%. With this overwhelming toxicity, there was little or no protection offered by the Cronassial®.

[3] = Acute vincristine toxicity in chicks, with and without Cronassial; assay type: in vivo, 48 hour old SPF chicks; conditions: for SURVIVORS AT 24hrs / SURVIVORS AT 28hrs / SURVIVORS AT 52hrs: acute, SPF 48hr chick, in combination CRON 200 mg/kg at same time
Procedure: as §1
In contrast,of those chicks which received 200 mg/kg Cronassial® at the same time as the vincristine, only 2/5 had died at 24 hours but only 1 remained alive at 28 hours.
With 4 mg/kg vincristine, 4/5 chicks survived for 24 hours but only 1/5 survived for 28 hours. The chicks which additionally, received 200 mg/kg Cronassial® survived better with 3/5 surviving to 28 hours.

sarcoma S180 = assay: Antitumour activity against sarcoma S180 (tumour weight); assay type: in vivo, Male Swiss Schneider mice; conditions: S180, host SN; VCR 0.5 mg/kg ip days 1-6; in combination CRON 200 mg/kg ip days 1-6, 6hrs before VCR; CMC-controls 1.05
Text: (§4) Antitumour effects. Male Swiss Schneider mice of 27g body weight were used for the sarcoma S180 experiments: female C₅₇Bl mice of 20g body weight were used for the B16 melanoma experiments; male BDF₁ mice of 30g body weight were used for the L1210 leukaemia experiments; and C₅₇Bl mice of 20g body weight were used for the Lewis lung experiments.
(§5) Sarcoma S180. This tumour has been transplanted in the same strain of mouse for more than 10 years.
(§6) Transplantation was done by subcutaneous inoculation of 0.1 ml of a tumour mash made by finely mincing viable tumour tissue and passing it repeatedly through a 26 gauge needle into a sterile Petri dish. 0.1 ml of penicillin (20,000 m/ml) and streptomycin (20,000 m/ml) were added to the mash, as well as neomycin (5 mgs).

leukaemia L1210 = assay: Antitumour activity against leukaemia L1210 (survival); assay type: in vivo, BDF₁ mice; conditions: for SURVIVAL (mean days) / SURVIVORS No. at 60 d: in combination CRON 200 mg/kg, CR same as MTZ
Procedure: Antitumour effects. Male Swiss Schneider mice of 27g body weight were used for the sarcoma S180 experiments: female C₅₇Bl mice of 20g body weight were used for the B16 melanoma experiments; […]; and C₅₇Bl mice of 20g body weight were used for the Lewis lung experiments.
L1210. Spleens were removed from animals 7 days after inoculation of L1210 cells and these spleens were finely minced with 1:100 isotonic saline. 0.1 ml of this spleen and leukaemia L1210 cell suspension was then injected subcutaneously into the flank of each BDF₁.

melanoma B16 = assay: Antitumour activity against melanoma B16 (tumour weight); assay type: in vivo, female C₅₇Bl mice; conditions: B16, host C5781; VCR 0.5 mg/kg ip days 1-4,7-11; in combination CRON 200 mg/kg, 6hrs before VCR; CMC-controls 2.33
Procedure: as §4
Melanoma B16. This tumour was prepared for inoculation in a manner identical to that used for the S180 sarcoma.

[4] = system: Lewis lung carcinoma (3LL); assay: Lewis lung carcinoma (3LL): primary tumour and lung secondaries; assay type: in vivo, C₅₇Bl mice; conditions: 3LL in flank; mitozantrone 3.0 mg/kg for 5 days, day 5 to 9 after implantation
Procedure: as §4
Lewis lung (3LL). This tumour was prepared for inoculation in a manner identical to that used for the S180 sarcoma.
This tumour metastasizes to the lungs when implanted into the flanks of mice. […]

[5] = Mitozantrone toxicity in mice bearing S180, with and without Cronassial; assay type: in vivo, Male Swiss Schneider mice; conditions: chronic, host SN (+S180), MTZ 5 mg/kg ip days 3.4.5
Procedure: as §1, §5, §6
(§7) Mitozantrone was made up in an appropriate manner. It was given in a volume of 0.2ml when the injections were given intraperitoneally but when given by another route, the volumes given were indicated in the appropriate Table.

[6] = Mitozantrone toxicity in mice, with and without Cronassial; assay type: in vivo, Male Swiss Schneider mice; conditions: host SN
Procedure: as §1, §3, §7

[7] = Blood counts (Coulter counter) after mitozantrone, with and without Cronassial; assay type: in vivo; conditions: blood by cardiac puncture
[8] = chronic, first pair of Table 4: MTZ 5 ip days 1,2, in combination CRON 200 same time as MTZ
[9] = chronic, second series of Table 4: MTZ 5 ip days 1,2, in combination CRON 200 same time as MTZ
[10] = M, MTZ 4 mg/kg iv x 3, days 1.2.3, in combination CRON 200 mg/kg, mixed as one injection
[11] = L1210, host BDF1, MTZ 5 mg/kg ip days 0.1.2
[12] = L1210, host BDF1, MTZ 5 mg/kg ip days 1.2.3

## CC[C@]1(O)C[C@H]2CN(CCc3c([nH]c4ccccc34)[C@@](C(=O)OC)(c3cc4c(cc3OC)N(C=O)[C@H]3[C@@](O)(C(=O)OC)[C@H](OC(C)=O)[C@]5(CC)C=CCN6CC[C@]43[C@@H]65)C2)C1 [VCR, vincristine]
[1]; acute, host SN, VCR 3.0 mg/kg iv day 1, in combination CRON 200 mg/kg ip day 1, 6hrs before VCR
  SURVIVORS No.at 30 d: 2/8
[1]; mouse, in vivo, acute, host SN, VCR 3.0 mg/kg iv day 1, in combination CRON 200 mg/kg ip day 1, 6hrs before VCR, read-out: SURVIVAL % at 30 d
  survival at 720 h: 25%
[1]; mouse, in vivo, vincristine 3.0 mg/kg, one intravenous injection, Swiss Schneider mice, in combination 200 mg/kg Cronassial 6 hours before, read-out: deaths by day 30
  mortality at 720 h: 75%
[2]; VCR 0.8 mg/kg ip days 1-5, in combination CRON 200 mg/kg ip days 1-5, 6hrs before VCR
  SURVIVORS No.at 30 d: 5/8
[2]; VCR 1.0 mg/kg ip days 1-4, in combination CRON 200 mg/kg ip days 1-4, 6hrs before VCR
  SURVIVORS No.at 30 d: 3/8
[2]; VCR 1.0 mg/kg ip days 1-5, in combination CRON 200 mg/kg ip days 1-5, 6hrs before VCR
  SURVIVORS No.at 30 d: 0/6
[2]; mouse, in vivo, VCR 0.8 mg/kg ip days 1-5, in combination CRON 200 mg/kg ip days 1-5, 6hrs before VCR
  survival at 720 h: 62.5%
[2]; mouse, in vivo, VCR 1.0 mg/kg ip days 1-4, in combination CRON 200 mg/kg ip days 1-4, 6hrs before VCR
  survival at 720 h: 37.5%
[2]; mouse, in vivo, VCR 1.0 mg/kg ip days 1-5, in combination CRON 200 mg/kg ip days 1-5, 6hrs before VCR
  survival at 720 h: 0%
[2]; mouse, in vivo, cumulative dose of vincristine 5 mg/kg, mice
  mortality: 100%
[2]; mouse, in vivo, daily injections of vincristine for 5 days, mice, read-out: LD₅₀
  LD50: ~0.8 mg/kg
[3]; 48 hour old chicks, vincristine 2 mg/kg, in combination Cronassial also given
  toxicity: little toxicity
[3]; 48 hour old chicks, vincristine 6 mg/kg
  chicks with no acute neurotoxic signs during the first 4 hours: 3/4
[3]; 48 hour old chicks, vincristine 6 mg/kg, in combination 200 mg/kg Cronassial at the same time
  dead at 24 hours: All the chicks were dead
[3]; VCR 2.0 mg/kg ip day 1
  SURVIVORS AT 24hrs: 2/2
  SURVIVORS AT 28hrs: 2/2
  SURVIVORS AT 52hrs: 1/2
[3]; VCR 4.0 mg/kg ip day 1
  SURVIVORS AT 24hrs: 4/5
  SURVIVORS AT 28hrs: 1/5
  SURVIVORS AT 52hrs: 1/5
[3]; VCR 6.0 mg/kg ip day 1
  SURVIVORS AT 24hrs: 0/4
Sarcoma S180
  TUMOUR WEIGHTS MEAN: 0.64 g
Leukaemia L1210; L1210, host BDF1, VCR 1.0 mg/kg ip days 1-3, in combination CRON 200 mg/kg ip days 1-3, same time as VCR, CMC-controls 8.0
  Mean survival time: 7.8 days
Melanoma B16
  TUMOUR WEIGHTS MEAN: 1.46 g

## O=C1c2c(O)ccc(O)c2C(=O)c2c(NCCNCCO)ccc(NCCNCCO)c21 [MTZ, mitozantrone]
[4]
  mice died by day 14: 7/8
[5]
  SURVIVORS No.at 30 d: 0/8
[5]; in combination CRON 200 mg/kg, CR same time MTZ
  SURVIVAL (mean days): 8.8 days
[6]; [8]
  SURVIVAL (mean days): 9 days
  SURVIVORS No.at 30 d: 0/6
[6]; [9]
  SURVIVAL (mean days): 11 days
  SURVIVORS No.at 30 d: 0/6
[6]; [10]
  SURVIVAL (mean days): 7.8 days
  SURVIVORS d.30: 0/5
Leukaemia L1210; [11]
  SURVIVAL (mean days): 6.14 days
  SURVIVORS No. at 60 d: 1/8
Leukaemia L1210; [12]
  SURVIVAL (mean days): 17.1 days
  SURVIVORS No. at 60 d: 2/8
Leukaemia L1210; L1210, host BDF1, MTZ 5 mg/kg ip days 3.4.5, CMC-controls 0/8
  SURVIVORS No. at 60 d: 0/8
Leukaemia L1210; L1210, host BDF1, MTZ 5 mg/kg ip days 3.4.5, CMC-controls 8.7
  SURVIVAL (mean days): 25.2 days
Leukaemia L1210; L1210, host DBA, MTZ 5 mg/kg ip days 2.3.4, CMC-controls 0/6
  SURVIVORS No. at 60 d: 0/6
Leukaemia L1210; L1210, host DBA, MTZ 5 mg/kg ip days 2.3.4, CMC-controls 7.2
  SURVIVAL (mean days): 16.8 days
[7]; Day 5., controls 7.9
  MEAN VALUES OF INDIVIDUAL ANIMALS RBC x 10¹²/l: 7.3 x 10¹²/l
[7]; Day 5, controls 9.3
  MEAN VALUES OF INDIVIDUAL ANIMALS WBC X 10⁹/l: 3.5 X 10⁹/l
[7]; Day 5, controls 632
  MEAN VALUES OF INDIVIDUAL ANIMALS PLATELETS x 10⁹/l: 631 x 10⁹/l
[7]; Day 7
  MEAN VALUES OF INDIVIDUAL ANIMALS PLATELETS x 10⁹/l: 845 x 10⁹/l
  MEAN VALUES OF INDIVIDUAL ANIMALS RBC x 10¹²/l: 7.0 x 10¹²/l
  MEAN VALUES OF INDIVIDUAL ANIMALS WBC X 10⁹/l: 2.2 X 10⁹/l
[7]; Day 8, controls 5.2
  MEAN VALUES OF INDIVIDUAL ANIMALS WBC X 10⁹/l: 3.2 X 10⁹/l
[7]; Day 8, controls 7.2
  MEAN VALUES OF INDIVIDUAL ANIMALS RBC x 10¹²/l: 7.1 x 10¹²/l
[7]; Day 8, controls 649
  MEAN VALUES OF INDIVIDUAL ANIMALS PLATELETS x 10⁹/l: 1058 x 10⁹/l
